Test results from paper PMC6072243 (ACS Omega, 2018).

Legend:
JNK3 = JNK3 (Homo sapiens, UniProt P53779); experiment: JNK3 enzyme-linked immunosorbent assay; format: biochemical
p38α MAPK = p38α MAPK (Homo sapiens, UniProt Q16539); experiment: p38α MAPK enzyme-linked immunosorbent assay; format: biochemical; conditions: for inhibition at 10 µM: read-out: Percent inhibition of p38α MAPK at indicated concentration
JNK1 = JNK1 (Homo sapiens, UniProt P45983); experiment: Radiometric assay, Reaction Biology corporation; format: biochemical
CYP450 2C9 = CYP450 2C9 (Homo sapiens, UniProt P11712); experiment: CYP450 inhibition; format: in vitro ADME; conditions: % inhibition at 10 μM
JNK2 = JNK2 (Homo sapiens, UniProt P45984); experiment: Radiometric assay, Reaction Biology corporation; format: biochemical
CYP450 3A4 = CYP450 3A4 (Homo sapiens, UniProt P08684); experiment: CYP450 inhibition; format: in vitro ADME; conditions: % inhibition at 10 μM
hERG channels = hERG channels (Homo sapiens, UniProt Q12809); experiment: hERG inhibition
CYP450 2D6 = CYP450 2D6 (Homo sapiens, UniProt P10635); experiment: CYP450 inhibition; format: in vitro ADME; conditions: % inhibition at 10 μM
[1] = system: panel of 45 diverse kinases; experiment: ExpresS Diversity Kinase Panel, whole panel; format: biochemical, human; conditions: panel of 45 kinases, 10 μM, including JNK1
CYP450 2C19 = CYP450 2C19 (Homo sapiens, UniProt P33261); experiment: CYP450 inhibition; format: in vitro ADME; conditions: % inhibition at 10 μM
[2] = In vitro metabolic stability in human liver microsomes; format: in vitro ADME; conditions: after 4 h incubation
CYP450 1A9 = experiment: CYP450 inhibition; format: in vitro ADME; conditions: % inhibition at 10 μM

JNK3, sequence (P53779 whole entry): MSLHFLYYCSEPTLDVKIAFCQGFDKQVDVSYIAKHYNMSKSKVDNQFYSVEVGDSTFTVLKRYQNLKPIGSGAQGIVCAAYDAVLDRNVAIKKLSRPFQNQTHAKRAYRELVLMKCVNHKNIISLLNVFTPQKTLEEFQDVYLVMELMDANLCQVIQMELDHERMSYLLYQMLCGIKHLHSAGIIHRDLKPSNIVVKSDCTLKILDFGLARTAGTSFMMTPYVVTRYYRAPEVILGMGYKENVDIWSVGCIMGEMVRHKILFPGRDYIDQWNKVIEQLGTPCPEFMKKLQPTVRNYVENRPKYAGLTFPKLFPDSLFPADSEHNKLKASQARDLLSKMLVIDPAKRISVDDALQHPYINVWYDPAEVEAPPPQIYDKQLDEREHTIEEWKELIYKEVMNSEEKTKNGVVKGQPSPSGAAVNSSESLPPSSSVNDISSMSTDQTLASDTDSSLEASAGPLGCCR
p38α MAPK, sequence (Q16539 whole entry): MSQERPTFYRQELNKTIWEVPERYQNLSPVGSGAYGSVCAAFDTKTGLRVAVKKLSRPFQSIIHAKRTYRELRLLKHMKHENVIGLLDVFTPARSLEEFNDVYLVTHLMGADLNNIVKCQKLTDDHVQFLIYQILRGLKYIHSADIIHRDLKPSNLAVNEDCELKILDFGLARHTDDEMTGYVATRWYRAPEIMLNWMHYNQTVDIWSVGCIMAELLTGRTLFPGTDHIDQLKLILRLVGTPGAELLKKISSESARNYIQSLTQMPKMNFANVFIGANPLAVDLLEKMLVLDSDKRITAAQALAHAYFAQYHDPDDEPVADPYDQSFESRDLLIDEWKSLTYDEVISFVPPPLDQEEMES
hERG channels, sequence (Q12809 whole entry): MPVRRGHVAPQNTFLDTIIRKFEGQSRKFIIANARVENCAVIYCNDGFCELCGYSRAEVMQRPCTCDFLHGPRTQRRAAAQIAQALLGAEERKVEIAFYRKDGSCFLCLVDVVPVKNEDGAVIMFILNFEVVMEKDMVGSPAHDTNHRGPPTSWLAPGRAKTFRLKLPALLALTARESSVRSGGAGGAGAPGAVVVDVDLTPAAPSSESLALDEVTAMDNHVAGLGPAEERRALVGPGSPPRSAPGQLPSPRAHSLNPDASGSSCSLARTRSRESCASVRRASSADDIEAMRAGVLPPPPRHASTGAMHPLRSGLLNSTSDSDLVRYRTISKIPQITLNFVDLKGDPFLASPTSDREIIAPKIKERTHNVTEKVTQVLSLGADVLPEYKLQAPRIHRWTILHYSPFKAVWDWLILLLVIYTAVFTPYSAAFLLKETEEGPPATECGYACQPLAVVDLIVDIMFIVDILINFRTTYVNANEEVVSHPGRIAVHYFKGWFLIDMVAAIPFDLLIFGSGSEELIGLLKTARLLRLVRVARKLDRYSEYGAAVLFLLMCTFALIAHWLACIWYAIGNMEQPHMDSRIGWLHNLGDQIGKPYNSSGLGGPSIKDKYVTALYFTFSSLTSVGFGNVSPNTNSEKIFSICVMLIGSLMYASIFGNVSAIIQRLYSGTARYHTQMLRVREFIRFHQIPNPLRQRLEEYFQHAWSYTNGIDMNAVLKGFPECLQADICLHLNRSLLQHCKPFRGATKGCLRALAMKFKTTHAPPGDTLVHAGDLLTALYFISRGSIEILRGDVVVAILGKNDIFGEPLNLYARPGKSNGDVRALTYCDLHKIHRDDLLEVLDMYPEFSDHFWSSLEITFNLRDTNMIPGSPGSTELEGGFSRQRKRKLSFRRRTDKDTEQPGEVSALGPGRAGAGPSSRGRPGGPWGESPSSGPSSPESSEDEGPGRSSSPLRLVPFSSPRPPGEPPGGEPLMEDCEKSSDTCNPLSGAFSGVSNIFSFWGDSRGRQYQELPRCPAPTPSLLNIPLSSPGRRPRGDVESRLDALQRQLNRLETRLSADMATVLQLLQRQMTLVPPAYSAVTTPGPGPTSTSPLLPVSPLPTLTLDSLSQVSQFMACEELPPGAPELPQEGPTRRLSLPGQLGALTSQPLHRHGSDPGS
JNK1, sequence (P45983 whole entry): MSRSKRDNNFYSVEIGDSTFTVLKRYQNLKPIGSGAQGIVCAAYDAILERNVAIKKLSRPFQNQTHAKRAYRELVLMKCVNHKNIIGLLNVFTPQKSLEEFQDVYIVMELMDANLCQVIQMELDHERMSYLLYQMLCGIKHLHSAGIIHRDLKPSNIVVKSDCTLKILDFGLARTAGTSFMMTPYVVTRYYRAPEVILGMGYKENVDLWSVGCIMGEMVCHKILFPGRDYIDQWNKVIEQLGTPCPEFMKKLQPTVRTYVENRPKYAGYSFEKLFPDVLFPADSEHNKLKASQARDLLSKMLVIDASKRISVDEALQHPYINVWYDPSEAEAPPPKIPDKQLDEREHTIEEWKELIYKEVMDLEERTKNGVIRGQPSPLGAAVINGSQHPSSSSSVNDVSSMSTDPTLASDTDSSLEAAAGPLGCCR
CYP450 2C19, sequence (P33261 whole entry): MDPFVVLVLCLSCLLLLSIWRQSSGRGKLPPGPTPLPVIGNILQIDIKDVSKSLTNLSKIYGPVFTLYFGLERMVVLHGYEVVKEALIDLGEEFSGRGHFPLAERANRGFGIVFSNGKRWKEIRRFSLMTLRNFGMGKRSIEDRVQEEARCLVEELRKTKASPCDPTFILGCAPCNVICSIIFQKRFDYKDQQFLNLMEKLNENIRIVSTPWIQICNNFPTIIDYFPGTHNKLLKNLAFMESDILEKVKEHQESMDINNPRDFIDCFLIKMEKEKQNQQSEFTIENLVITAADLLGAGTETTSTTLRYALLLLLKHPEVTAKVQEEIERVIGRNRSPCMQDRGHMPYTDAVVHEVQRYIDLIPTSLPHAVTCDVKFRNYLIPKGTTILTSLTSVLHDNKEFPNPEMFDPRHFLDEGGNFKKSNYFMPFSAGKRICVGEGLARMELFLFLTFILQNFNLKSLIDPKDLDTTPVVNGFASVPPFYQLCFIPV
CYP450 2D6, sequence (P10635 whole entry): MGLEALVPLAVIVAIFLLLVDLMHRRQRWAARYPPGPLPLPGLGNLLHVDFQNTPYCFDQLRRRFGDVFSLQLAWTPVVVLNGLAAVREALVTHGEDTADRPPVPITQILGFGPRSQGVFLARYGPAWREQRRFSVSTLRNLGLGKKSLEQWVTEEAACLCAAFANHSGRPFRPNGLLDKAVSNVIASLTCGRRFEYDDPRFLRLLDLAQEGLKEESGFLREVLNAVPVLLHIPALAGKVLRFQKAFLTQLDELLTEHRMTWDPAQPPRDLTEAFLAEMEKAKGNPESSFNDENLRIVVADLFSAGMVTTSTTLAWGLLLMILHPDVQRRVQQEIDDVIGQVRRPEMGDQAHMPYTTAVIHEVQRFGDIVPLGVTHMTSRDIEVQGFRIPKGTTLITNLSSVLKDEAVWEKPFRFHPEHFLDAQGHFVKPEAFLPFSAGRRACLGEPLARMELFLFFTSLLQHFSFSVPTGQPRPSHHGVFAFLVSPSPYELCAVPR
CYP450 2C9, sequence (P11712 whole entry): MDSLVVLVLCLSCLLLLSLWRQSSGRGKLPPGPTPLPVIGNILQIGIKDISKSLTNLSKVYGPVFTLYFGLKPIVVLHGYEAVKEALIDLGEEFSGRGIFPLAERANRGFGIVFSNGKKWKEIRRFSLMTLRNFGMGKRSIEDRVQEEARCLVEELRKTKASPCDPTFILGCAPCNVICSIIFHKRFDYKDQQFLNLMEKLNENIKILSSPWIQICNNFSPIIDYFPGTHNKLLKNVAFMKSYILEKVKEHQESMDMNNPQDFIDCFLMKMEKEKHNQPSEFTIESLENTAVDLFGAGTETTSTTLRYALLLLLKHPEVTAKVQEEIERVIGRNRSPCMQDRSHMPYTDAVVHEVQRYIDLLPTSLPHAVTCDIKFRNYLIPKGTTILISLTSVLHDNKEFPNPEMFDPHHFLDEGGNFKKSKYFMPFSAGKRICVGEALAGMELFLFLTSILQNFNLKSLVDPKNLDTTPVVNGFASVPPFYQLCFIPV
CYP450 3A4, sequence (P08684 whole entry): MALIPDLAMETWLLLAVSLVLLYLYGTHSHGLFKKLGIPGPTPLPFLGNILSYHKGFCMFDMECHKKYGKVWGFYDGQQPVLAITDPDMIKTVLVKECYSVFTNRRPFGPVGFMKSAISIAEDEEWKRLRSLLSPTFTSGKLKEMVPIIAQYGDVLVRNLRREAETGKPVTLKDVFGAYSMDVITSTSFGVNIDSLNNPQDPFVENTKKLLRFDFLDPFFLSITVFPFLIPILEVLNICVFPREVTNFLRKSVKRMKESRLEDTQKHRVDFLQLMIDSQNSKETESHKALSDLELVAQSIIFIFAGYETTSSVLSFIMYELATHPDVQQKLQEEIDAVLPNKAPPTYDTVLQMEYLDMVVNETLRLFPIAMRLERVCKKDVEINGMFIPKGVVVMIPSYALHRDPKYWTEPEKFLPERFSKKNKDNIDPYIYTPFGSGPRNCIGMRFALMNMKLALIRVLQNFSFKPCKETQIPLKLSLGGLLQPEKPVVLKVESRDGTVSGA
JNK2, sequence (P45984 whole entry): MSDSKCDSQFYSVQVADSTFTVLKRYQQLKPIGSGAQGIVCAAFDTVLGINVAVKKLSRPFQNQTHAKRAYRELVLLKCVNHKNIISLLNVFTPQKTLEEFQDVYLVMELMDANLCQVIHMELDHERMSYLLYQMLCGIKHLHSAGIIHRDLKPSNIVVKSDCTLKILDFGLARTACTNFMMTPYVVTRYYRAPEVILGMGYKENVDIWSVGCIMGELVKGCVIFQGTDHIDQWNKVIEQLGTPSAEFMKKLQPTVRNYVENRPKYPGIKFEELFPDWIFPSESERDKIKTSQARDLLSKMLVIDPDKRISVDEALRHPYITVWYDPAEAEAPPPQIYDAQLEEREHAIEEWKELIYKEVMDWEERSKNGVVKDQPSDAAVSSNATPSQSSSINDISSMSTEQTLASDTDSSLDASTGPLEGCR

| Compound | IC50 (JNK3) [nM] | IC50 (p38α MAPK) [nM] | inhibition at 10 µM (p38α MAPK) [%] | further results |
| --- | --- | --- | --- | --- |
| c1ccc(-c2nc[nH]c2-c2ccnc(Nc3ccc(N4CCOCC4)cc3)c2)cc1 [Compound 18a, N-(4-Morpholinophenyl)-4-(4-phenyl-1H-imidazol-5-yl)pyridin-2-amine] | 37 ± 3 | 24 ± 3 |  |  |
| Cn1cc(-c2nc[nH]c2-c2ccnc(Nc3ccc(N4CCOCC4)cc3)c2)cn1 [Compound 18f, 4-(4-(1-Methyl-1H-pyrazol-4-yl)-1H-imidazol-5-yl)-N-(4-morpholinophenyl)pyridin-2-amine] | 758 ± 49 | 3260 |  |  |
| CCc1nc(-c2ccc(F)cc2)c(-c2ccnc(Nc3ccc(N4CCOCC4)cc3)c2)[nH]1 [Compound 13, 4-(2-Ethyl-4-(4-fluorophenyl)-1H-imidazol-5-yl)-N-(4-morpholinophenyl)pyridin-2-amine] | 34 ± 0.2 | 9 ± 4 |  |  |
| FC(F)(F)c1cccc(-c2nc[nH]c2-c2ccnc(Nc3ccc(N4CCOCC4)cc3)c2)c1 [Compound 18d, N-(4-Morpholinophenyl)-4-(4-(3-(trifluoromethyl)phenyl)-1H-imidazol-5-yl)pyridin-2-amine] | 143 ± 12 | 22 ± 3 |  | fold higher activity for p38α MAPK than for JNK3 (p38α MAPK; ratio of IC50 values): 6 fold |
| c1cc(-c2[nH]cnc2C2CCC2)cc(Nc2ccc(N3CCOCC3)cc2)n1 [Compound 18i, 4-(4-Cyclobutyl-1H-imidazol-5-yl)-N-(4-morpholinophenyl)pyridin-2-amine] | 1760 | 2260 |  |  |
| O=c1[nH]c(-c2ccc(F)cc2)c(-c2ccnc(Nc3ccc(N4CCOCC4)cc3)c2)[nH]1 [Compound 8, 4-(4-Fluorophenyl)-5-(2-((4-morpholinophenyl)amino)pyridin-4-yl)-1,3-dihydro-2H-imidazol-2-one] | 142 ± 28 | 34 ± 4 |  |  |

Second part, led by results:

| IC50 (JNK3) [nM] | IC50 (p38α MAPK) [nM] | inhibition at 10 µM (p38α MAPK) [%] | Compound | further results |
| --- | --- | --- | --- | --- |
| 6510 | > 10000 | 40 | CSc1nc(C)c(-c2ccnc(Nc3ccc(N4CCOCC4)cc3)c2)n1C1CC1 [Compound 59, 4-(1-Cyclopropyl-4-methyl-2-(methylthio)-1H-imidazol-5-yl)-N-(4-morpholinophenyl)pyridin-2-amine] | fold less active on JNK3 compared to N-methyl analogue 57 (JNK3): ~3 fold |
| 432 ± 37 | > 10000 | 33 | CSc1nc(C)c(-c2ccnc(Nc3ccc(NC(=O)c4ccccc4)cc3)c2)[nH]1 [Compound 48o, N-(4-((4-(4-Methyl-2-(methylthio)-1H-imidazol-5-yl)pyridin-2-yl)amino)phenyl)benzamide] |  |
| 363 ± 34 | > 10000 | 48 | CSc1nc(C)c(-c2ccnc(Nc3ccc(N4CCOCC4)cc3)c2)[nH]1 [Compound 44, 4-(4-Methyl-2-(methylthio)-1H-imidazol-5-yl)-N-(4-morpholinophenyl)pyridin-2-amine] | fold increase in the inhibitory potency on JNK3 over analogue 38 (JNK3): 2 fold; IC50 (JNK1): 119 nM; CYP450 inhibition 2C9 (CYP450 2C9): 53.9%; IC50 (JNK2): 468 nM; CYP450 inhibition 3A4 (CYP450 3A4): 75.1%; IC50 (hERG channels): > 10000 nM; hERG inhibition [% inhibition at 10 μM] (hERG channels; 10 μM): 38.8%; CYP450 inhibition 2D6 (CYP450 2D6): 19.0%; number of kinases inhibited more than 50% [1]: 10; CYP450 inhibition 2C19 (CYP450 2C19): 35.6%; unmodified compound still present [2]: approximately 80%; CYP450 inhibition 1A9 (CYP450 1A9): 51.5% |
| 1100 | > 10000 | 38 | CCc1nc(SC)[nH]c1-c1ccnc(Nc2ccc(N3CCOCC3)cc2)c1 [Compound 45, 4-(4-Ethyl-2-(methylthio)-1H-imidazol-5-yl)-N-(4-morpholinophenyl)pyridin-2-amine] |  |
| 2510 | > 10000 | 10 | CSc1nc(C)c(-c2ccnc(Nc3ccc(N4CCOCC4)cc3)c2)n1C [Compound 57, 4-(1,4-Dimethyl-2-(methylthio)-1H-imidazol-5-yl)-N-(4-morpholinophenyl)pyridin-2-amine] |  |
| 2830 | 10000 | 50 | CC(C)c1nc[nH]c1-c1ccnc(Nc2ccc(N3CCOCC3)cc2)c1 [Compound 18l, 4-(4-Isopropyl-1H-imidazol-5-yl)-N-(4-morpholinophenyl)pyridin-2-amine] |  |
| 1280 | > 10000 | 37 | CSc1nc(-c2ccnc(Nc3ccc(N4CCOCC4)cc3)c2)c(C)n1C [Compound 50, 4-(1,5-Dimethyl-2-(methylthio)-1H-imidazol-4-yl)-N-(4-morpholinophenyl)pyridin-2-amine] |  |
| 2090 | > 10000 | 21 | CCn1c(SC)nc(C)c1-c1ccnc(Nc2ccc(N3CCOCC3)cc2)c1 [Compound 58, 4-(1-Ethyl-4-methyl-2-(methylthio)-1H-imidazol-5-yl)-N-(4-morpholinophenyl)pyridin-2-amine] |  |
